From patent US8188277B2, “Aromatic compounds for suppressing the generation of collagen” (Otsuka Pharmaceutical Co., Ltd., priority 2004, dated 2012) come the findings set out here.

Structures can show the parent of a compound that is named as a salt.

The compound `Cc1cc(N2CCCN(CC(=O)N3CCN(Cc4ccc5c(c4)OCO5)CC3)C2=O)ccc1Oc1ccc(NC(=O)c2ccc(C(F)(F)F)cc2)cn1` [compound 1186] had a melting point of 182 to 183.5 °C.

The compound `Cc1cc(N2CCN(Cc3ccc4c(c3)OCO4)C2=O)ccc1Oc1ccc(NC(=O)c2ccc(C(F)(F)F)cc2)cn1` [compound 1504, N-{6-[2-methyl-4-(2-oxo-3-piperonylimidazolidin-1-yl)phenoxy]pyridin-3-yl}-4-trifluoromethylbenzamide] yielded a melting point of 188 to 189 °C.

`Cc1cc(N(C)CC(=O)N2CCN(C(=O)c3ccc4c(c3)OCO4)CC2)ccc1Oc1ccc(NC(=O)c2ccc(Cl)c(Cl)c2)cn1` [compound 2054] gave a melting point of 133 to 135 °C.

`COc1ccc(CN2CCCN(c3ccc(Oc4ccc(NC(=O)c5ccc(C(F)(F)F)cc5)cn4)c(C)c3)C2=O)cc1OC` [compound 1185] returned a melting point of 155 to 157 °C.

Take `O=C(Nc1ccc(Oc2ccc(N3CCN(S(=O)(=O)c4ccccc4)CC3)cc2)cc1)c1ccc(Cl)c(Cl)c1` [compound 2031, N-{4-[4-(4-benzenesulfonylpiperazin-1-yl)phenoxy]phenyl}-3,4-dichlorobenzamide]: the melting point fell in the range of 191 to 192 °C.

In turn, `CN(CC(=O)N1CCN(Cc2ccc3c(c2)OCO3)CC1)c1ccc(Oc2ccc(NS(=O)(=O)c3ccc(Cl)c(Cl)c3)cn2)c(F)c1` [compound 1615, 3,4-dichloro-N-[6-(2-fluoro-4-{methyl[2-oxo-2-(4-piperonylpiperazin-1-yl)ethyl]amino}phenoxy)pyridin-3-yl]benzenesulfonamide] showed a melting point of 185.6 to 187 °C.

`O=C(Nc1ccc(Oc2ccc(N3CCN(Cc4ccccc4)C3=O)cc2)nc1)c1ccc(C(F)(F)F)cc1` [compound 1181] gave a melting point of 203 to 204 °C.

On to `Cc1cc(N(C)CC(=O)N2CCN(Cc3ccccc3)CC2)ccc1Oc1ccc(NC(=O)c2ccc(Cl)c(Cl)c2)cn1` [compound 1516], for which the melting point lay in the range of 111 to 113 °C.

Take `CC(=O)N(CC(=O)N1CCN(Cc2ccc3c(c2)OCO3)CC1)c1ccc(Oc2ccc(NC(=O)c3ccc(Cl)c(Cl)c3)cn2)c(F)c1` [compound 730]: the melting point was 233 to 235 °C.

Take `CC(=O)N(CC(=O)N1CCN(Cc2ccc3c(c2)OCO3)CC1)c1ccc(Oc2ccc(NC(=O)c3ccc(Cl)c(Cl)c3)cn2)c(C)c1` [compound 725]: the melting point was in the range of 216 to 217 °C.

Consider `O=C(Nc1ccc(Oc2ccc(C3=CCN(C(=O)CN4CCOCC4)CC3)cc2)cc1)c1ccc(Cl)c(Cl)c1` [compound 2565], for which the melting point fell in the range of 195 to 197 °C.

As for `CCN(CC(=O)N1CCN(Cc2ccc3c(c2)OCO3)CC1)c1ccc(Oc2ccc(NC(=O)c3ccc(Cl)c(Cl)c3)cn2)c(F)c1` [compound 728], the melting point lay within 149 to 151 °C.

Compound `O=C(Nc1ccc(Oc2ccc(C(O)CN3CCOCC3)cc2)c(F)c1)c1ccc(Cl)c(Cl)c1` (stereo not drawn) [compound 2715, 3,4-dichloro-N-{3-fluoro-4-[4-(1-hydroxy-2-morpholine-4-ylethyl)phenoxy]phenyl}benzamide] returned a melting point of 169 to 170 °C.

`CCN(CC(=O)N1CCN(Cc2ccc3c(c2)OCO3)CC1)c1ccc(Oc2ccc(NC(=O)c3ccc(C(F)(F)F)cc3)cn2)c(F)c1` [compound 775] returned a melting point of 170 to 172 °C.

`O=C(Nc1ccc(Oc2ccc(N3CCN(C(=O)c4ccc5c(c4)OCO5)CC3)cc2)cc1)c1ccc(Cl)c(Cl)c1` [compound 2053] came in with a melting point of 116 to 118 °C.

The compound `CCN(CC(=O)N1CCN(Cc2ccccc2)CC1)c1ccc(Oc2ccc(NC(=O)c3ccc(C(F)(F)F)cc3)cn2)c(C)c1` (as salt: maleate) [compound 1513] returned a melting point of 165 to 167 °C.

`CC(C)(C)OC(=O)N1CCN(C(=O)CCc2ccc(Oc3ccc(NC(=O)c4ccc(Cl)c(Cl)c4)cc3F)cc2)CC1` [compound 464] yielded a melting point of 155 to 157 °C.

In turn, `O=C(Nc1ccc(Oc2ccc(C(=O)N3CCN(c4ccccn4)CC3)cc2)nc1)c1ccc(C(F)(F)F)cc1` [compound 176] yielded a melting point of 222 to 224 °C.

For `Cc1cc(N(C)CC(=O)N2CCN(Cc3ccc4c(c3)OCO4)CC2)ccc1Oc1ccc(NC(=O)c2ccc(Cl)c(Cl)c2)cn1` (as salt: hydrochloride) [compound 1512], the melting point is 183 to 185 °C (dec.).

On to `COc1ccc(CN2CCCN(c3ccc(Oc4ccc(NC(=O)c5ccc(Cl)c(Cl)c5)cn4)c(C)c3)C2=O)cc1OC` [compound 1187], for which the melting point was in the range of 117 to 118 °C.

The compound `O=C(Nc1ccc(Oc2ccc(N3CCN(C(=O)CN4CCOCC4)CC3)cc2)cc1)c1ccc(Cl)c(Cl)c1` [compound 2559] had a melting point of 177 to 178 °C.

Take `CN(CC(=O)N1CCN(Cc2ccc3c(c2)OCO3)CC1)c1ccc(Oc2ccc(NC(=O)c3ccc(Cl)c(Cl)c3)cn2)c(F)c1` [compound 729]: the melting point was in the range of 199 to 201 °C.

Compound `CCN(CC(=O)N1CCN(Cc2ccc3c(c2)OCO3)CC1)c1ccc(Oc2ccc(NC(=O)c3ccc(C(F)(F)F)cc3)cn2)cc1` [compound 774] showed a melting point of 178 to 180 °C.

For `CCN(CC(=O)N1CCN(Cc2ccoc2)CC1)c1ccc(Oc2ccc(NC(=O)c3ccc(C(F)(F)F)cc3)cn2)c(OC)c1` [compound 784], the melting point was in the range of 174 to 176 °C.

In turn, `Cc1cc(N(C)CC(=O)N2CCN(Cc3ccoc3)CC2)ccc1Oc1ccc(NC(=O)c2ccc(Cl)c(Cl)c2)cn1` [compound 718] yielded a melting point of 116.5 to 118 °C.

In turn, `O=C(Nc1ccc(Oc2ccc(N3CCN(Cc4ccccc4)C3=O)cc2)nc1)c1ccc(Cl)c(Cl)c1` [compound 1182] yielded a melting point of 186 to 187 °C.

`O=C(Nc1ccc(Oc2ccc(CCC(=O)N3CCN(c4cccnc4)CC3)cc2)cc1)c1ccc(Cl)c(Cl)c1` [compound 466] had a melting point of 153 to 155 °C.

As to `O=C(Nc1ccc(Oc2ccc(CCC(=O)N3CCN(c4cccnc4)CC3)cc2)c(F)c1)c1ccc(Cl)c(Cl)c1` [compound 467], the melting point lay in the range of 183 to 185 °C.

In turn, `Br.CN(CC(=O)N1CCN(Cc2ccc3c(c2)OCO3)CC1)c1cc(F)c(Oc2ccc(C(=O)Nc3ccc(C(F)(F)F)cc3)cn2)cc1F` [compound 1037, 6-(4-{[2-(4-Piperonylpiperazin-1-yl)-2-oxoethyl]methylamino}-2,5-difluorophenoxy)-N-(4-trifluoromethylphenyl)nicotinamide hydrobromide] gave a melting point of 224.5 to 226 °C.

The compound `O=C(Nc1ccc(Oc2ccc(N3CCN(C(=O)COc4ccccc4)CC3)cc2)cc1)c1ccc(Cl)c(Cl)c1` [compound 2052] displayed a melting point of 171 to 173 °C.

Compound `CC(=O)N(CC(=O)N1CCN(Cc2ccccc2)CC1)c1ccc(Oc2ccc(NC(=O)c3ccc(C(F)(F)F)cc3)cn2)cc1` [compound 771] showed a melting point of 161 to 162 °C.

For the compound `O=C(Nc1ccc(Oc2ccc(C3=CCN(CCCn4ccnc4)CC3)cc2)cc1)c1ccc(Cl)c(Cl)c1` [compound 2486, 3,4-Dichloro-N-(4-{4-[1-(3-imidazole-1-ylpropyl)-1,2,3,6-tetrahydropyridine-4-yl]phenoxy}phenyl)-benzamide], the melting point is 169 to 171 °C.

In turn, `COc1cc(N(C)CC(=O)N2CCN(Cc3ccoc3)CC2)ccc1Oc1ccc(NC(=O)c2ccc(C(F)(F)F)cc2)cn1` [compound 785] had a melting point of 160 to 164 °C.
